Counter-ions that a name gives are not always drawn.
The compounds below were run against Human immunodeficiency virus type 1 reverse transcriptase (Human immunodeficiency virus 1, UniProt Q72547). Details: not given.

| IC50 [µg/mL] | Compound |
| --- | --- |
| > 200 | RAUWOLFIA SERPENTINA |

Same assay, conditions: read-out: IC50 (converted)

| Compound | IC50 [µM] |
| --- | --- |
| C=C(C)[C@@H]1[C@H]2OC(=O)[C@@H]1[C@]1(O)C[C@H]3OC34C(=O)O[C@H]2[C@@]41C.CC(C)(O)[C@@H]1[C@H]2OC(=O)[C@@H]1[C@]1(O)C[C@H]3OC34C(=O)O[C@H]2[C@@]41C (some centres not stated) [PICROTOXIN] | > 332 |
| COc1cc2c(cc1OC)N1C(=O)C[C@]34C=CCN5CC[C@@H]2[C@@H](CC3)C514 | > 567 |
| CC(=O)N[C@H]1[C@H](O[C@H]2CC[C@]3(C)[C@H]4CC=C5[C@H]6CC(C)(C)CC[C@]6(C(=O)O)CC[C@@]5(C)[C@]4(C)CC[C@H]3C2(C)C)O[C@H](CO)[C@@H](O)[C@@H]1O [ARIDANIN] | > 303 |
| C[n+]1cccc(C(=O)[O-])c1 [TRIGONELLINE HYDROCHLORIDE] | > 1150 |
| COc1cc2c(c(OC)c1OC)-c1ccc(OC)c(=O)cc1[C@@H](NC(C)=O)CC2 [COLCHICINE] | > 501 |
| CC[C@H]1C[C@@H]2CN3CCc4c([nH]c5cc(OC)c(OC)cc45)[C@](C(=O)OC)(C2)[C@H]13 [CONOPHARYNGINE] | > 502 |
| COc1cc2c(cc1O)CC[n+]1cc3c(OC)c(OC)ccc3cc1-2 [JATRORRHIZINE CHLORIDE] | 190 |
| COc1cc([C@H]2OC[C@H]3[C@@H]2CO[C@@H]3c2cc(OC)c(O[C@@H]3O[C@H](CO)[C@@H](O)[C@H](O)[C@H]3O)c(OC)c2)cc(OC)c1O[C@@H]1O[C@H](CO)[C@@H](O)[C@H](O)[C@H]1O [LIRIODENDRIN] | > 269 |
| CCC1=C[C@@H]2CN3CCc4c([nH]c5ccccc45)[C@](C(=O)OC)(C2)[C@@H]13 [CATHARANTHINE HYDROCHLORIDE] | > 536 |
| CC[C@]1(O)C[C@@H]2CN(CCc3c([nH]c4ccccc34)[C@@](C(=O)OC)(c3cc4c(cc3OC)N(C)[C@H]3[C@@](O)(C(=O)OC)[C@H](OC(C)=O)[C@]5(CC)C=CCN6CC[C@]43[C@@H]65)C2)C1 [VINBLASTINE] | > 247 |
| COc1c2occc2c(CC(O)C(C)(C)O)c2ccc(=O)oc12 (configuration not stated) | > 628 |
| C/C=C1/C[C@@H](C)[C@@](C)(O)C(=O)OCC2=CCN3CC[C@@H](OC1=O)[C@@H]23 [SENECIONINE] | > 596 |
| CC1=C(O)C(=O)C=C2C1=CC=C1[C@@]2(C)CC[C@@]2(C)[C@@H]3C[C@@H](C)C(=O)[C@@H](O)[C@]3(C)CC[C@]12C [TINGENIN B] | > 458 |
| COC(=O)[C@@]12OC[C@]34[C@H]([C@@H](O)[C@@H]1O)[C@@]1(C)CC(=O)C(O)=C(C)[C@@H]1C[C@H]3OC(=O)[C@H](OC(=O)/C=C(\C)C(C)C)[C@@H]24 [BRUCEANTIN] | > 365 |
| COc1ccc2[nH]c3c(C)c4ccncc4c(C)c3c2c1 | < 543 |
| C/C=C1/CN[C@H]2Cc3c([nH]c4ccccc34)C(=O)C[C@@H]1[C@@H]2C(=O)OC [PERIVINE] | > 591 |
| O=C1C[C@]23C=CCN4CC[C@H]5c6cc7c(cc6N1[C@@]5(CC2)[C@@H]43)OCO7 [SCHIZOZYGINE] | > 595 |
| C/C=C1/C(=O)O[C@]23C=C[C@@H]4C(C(=O)OC)=CO[C@H](O[C@@H]12)[C@@H]43 [PLUMERICIN] | > 689 |
| COc1cc2c(cc1O)C[C@H]1c3c(cc(O)c(OC)c3-2)CCN1C [BOLDINE] | > 611 |
| CC(C)(O)CC[C@@H](O)[C@](C)(O)[C@H]1CC[C@@]2(O)C3=CC(=O)[C@]4(O)C[C@@H](O)[C@@H](O)C[C@]4(C)[C@H]3CC[C@]12C [POLYPODIN] | > 403 |
| CC(=O)O[C@H]1C(=O)[C@@]2(C)[C@H]([C@H](OC(=O)c3ccccc3)[C@]3(O)C[C@H](OC(=O)[C@H](O)[C@@H](NC(=O)c4ccccc4)c4ccccc4)C(C)=C1C3(C)C)[C@]1(OC(C)=O)CO[C@@H]1C[C@@H]2O [PACLITAXEL] | > 234 |

| Compound | IC50 [µM] |
| --- | --- |
| COc1ccc2cc3[n+](cc2c1OC)CCc1cc2c(cc1-3)OCO2 [BERBERINE CHLORIDE] | 269 |
| C/C=C1/CN(C=O)[C@H]2Cc3c([nH]c4ccccc34)C(=O)C[C@@H]1[C@@H]2C(=O)OC [PERIFORMYLINE] | > 546 |
| COc1cc2c(c3c1c(=O)c1ccccc1n3C)C=CC(C)(C)O2 [ACRONINE] | > 622 |
| CC[C@@]1(O)C(=O)OCc2c1cc1n(c2=O)Cc2cc3ccccc3nc2-1 [CAMPTOTHECIN] | > 574 |
| CC(=O)O[C@@H]1[C@@H](O)[C@H](O[C@H]2[C@H](OC(=O)[C@H]3CC[C@@H]4[C@H](C3)O[C@@]3(C[C@H](OC(=O)/C=C/c5ccccc5)[C@H](C)CO3)[C@]43CO3)O[C@H](C)[C@@H](O)[C@@H]2OC(C)=O)O[C@H](C)[C@H]1O [PHYLLANTHOSIDE] | > 248 |
| C=C[C@H]1C[N@@]2CC[C@H]1C[C@@H]2[C@@H](O)c1ccnc2ccccc12 [CINCHONINE] | > 679 |
| CC1(C)CC[C@]2(C)CC[C@]3(C)C(=CC[C@@H]4[C@@]5(C)CC[C@H](O)C(C)(C)[C@@H]5CC[C@]43C)[C@@H]2C1 [beta-AMYRIN] | > 469 |
| CNC[C@H](O)c1cccc(O)c1 [PHENYLEPHRINE] | > 1200 |
| COC(=O)C[C@](O)(CCCC(C)(C)O)C(=O)O[C@@H]1C(OC)=C[C@]23CCCN2CCc2cc4c(cc2[C@H]13)OCO4 [OMACETAXINE MEPESUCCINATE] | > 367 |
| CC(=O)N[C@H]1[C@@H](O[C@H]2[C@H](O)[C@@H](O)[C@H](O[C@H]3[C@H](CS(=O)(=O)O)[C@@H](OS(=O)(=O)O)[C@@H](O[C@H]4[C@H](O)[C@@H](OS(=O)(=O)O)C(O)O[C@H]4C(=O)O)O[C@@H]3O)O[C@@H]2C(=O)O)O[C@H](COS(=O)(=O)O)[C@@H](O)[C@@H]1O (some centres not stated) [SODIUM HEPARIN] | > 192 |
| COC(=O)C1=CO[C@@H](O[C@@H]2O[C@H](CO)[C@@H](O)[C@H](O)[C@H]2O)[C@H]2[C@@H]1C=C[C@@]21C=C([C@H](C)O)C(=O)O1 [PLUMIERIDE] | > 425 |
| C[C@@H]1O[C@@H](O[C@H]2C[C@@H](O)[C@]3(CO)[C@H]4[C@H](O)C[C@]5(C)[C@@H](C6=CC(=O)OC6)CC[C@]5(O)[C@@H]4CC[C@]3(O)C2)[C@H](O)[C@H](O)[C@H]1O [OUABAIN] | > 342 |
| COC(=O)C[C@](O)(CCC(C)(C)O)C(=O)O[C@@H]1C(OC)=C[C@]23CCCN2CCc2cc4c(cc2[C@H]13)OCO4 [HARRINGTONINE] | > 376 |
| COc1cc2c(OC)c3ccoc3nc2cc1O | > 816 |
| C/C=C/C=C1\C=Cc2c(C(=O)OC)coc(=O)c21 [FULVOPLUMIERIN] | 184 |
| COc1cc(O)c2c(=O)cc(-c3ccc(O)cc3)oc2c1 [GENKWANIN] | > 704 |
| COc1ccc2cc1Oc1ccc(cc1)C[C@H]1c3cc(c(OC)cc3CCN1C)Oc1c(OC)c(OC)c(OC)c3c1[C@H](C2)N(C)CC3 [HERNANDEZINE] | > 306 |
| COC(=O)C1=CO[C@@H](O[C@@H]2O[C@H](CO)[C@@H](O)[C@H](O)[C@H]2O)[C@H]2[C@@H]1C=C[C@@]21C=C([C@H](C)OC(=O)/C=C/c2ccc(O)cc2)C(=O)O1 | > 324 |
| C1CCN2C[C@]34C[C@H](C[C@@H]5CCCN([C@@H]6CCC[C@@H]3N6)[C@H]54)[C@H]2C1 [PANAMINE] | > 634 |
| COC(=O)C1=CO[C@@H](C)[C@@H]2Cn3ccc4c5ccccc5nc-4c3C[C@H]12 [ALSTONINE HYDROCHLORIDE] | < 390 |
| COc1coc(CO)cc1=O | > 1280 |

| Compound | IC50 [µM] |
| --- | --- |
| C/C=C(/C)C(=O)O[C@H]1CCN2CC=C(COC(=O)[C@](O)([C@H](C)OC)C(C)(C)O)[C@H]12 [LASIOCARPINE] | > 486 |
| Cc1c2ccncc2c(C)c2c1[nH]c1ccccc12 [ELLIPTECINE] | < 609 |
| CC[C@H]1CN2CCc3cc(OC)c(OC)cc3[C@@H]2C[C@@H]1C[C@H]1NCCc2c1[nH]c1ccc(O)cc21 [TUBULOSINE] | > 420 |
| COC(=O)[C@H]1[C@H]2C[C@H]3c4[nH]c5ccccc5c4CCN3C[C@@H]2CC[C@@H]1O [CORYNANTHEINE] | > 564 |
| CC[C@@H]1CN2CCc3c([nH]c4ccccc34)[C@@H]2C[C@@H]1/C(=C\OC)C(=O)OC [CORYNANRHEIDINE] | > 543 |
| COc1ccc2c(c1OC)-c1cc(ccc1O)/C=C\C(=O)O[C@H]1C[C@@H]3CCCCN3[C@H]2C1 | > 460 |
| CN1Cc2c(ccc3c2OCO3)[C@@H]2[C@H]1c1cc3c(cc1C[C@@H]2O)OCO3 [CHELIDONINE] | < 566 |
| CC[C@H](/C=C/[C@@H](C)[C@H]1CC[C@H]2[C@@H]3CC=C4C[C@@H](O)CC[C@]4(C)[C@H]3CC[C@]12C)C(C)C [STIGMASTEROL] | > 485 |
| COc1cc2c(c3c1c(=O)c1ccccc1n3C)CCC(C)(C)O2 [DIHYDROACRONYCINE] | > 618 |
| COc1c2occc2c(OC)c2c(=O)cc(C)oc12 [KHELLIN] | > 769 |
| C=C(C)[C@@H]1CC[C@]2(CO)CC[C@]3(C)[C@H](CC[C@@H]4[C@@]5(C)CC[C@H](O)C(C)(C)[C@@H]5CC[C@]43C)[C@@H]12 [BETULIN] | > 452 |
| COc1ccc2c(c1OC)CN1CCc3cc4c(cc3C1=C2)OCO4 [DIHYDROBERBERINE] | > 593 |
| COC(=O)C1=CCCN(C)C1 [ARECOLINE HYDROBROMIDE] | > 847 |
| C/C=C1/C[C@@H](C)[C@](O)(CO)C(=O)OCC2=CCN3CC[C@@H](OC1=O)[C@@H]23 [RETRORSINE] | > 569 |
| C=C1C[C@@]23CC[C@H]4[C@@](C)(CCC[C@@]4(C)C(=O)O)[C@@H]2CC[C@]1(O)C3 [STEVIOL] | > 628 |
| CC(C)=CCC[C@](C)(O[C@@H]1O[C@H](CO[C@@H]2O[C@H](CO)[C@@H](O)[C@H](O)[C@H]2O)[C@@H](O)[C@H](O)[C@H]1O)[C@H]1CC[C@]2(C)[C@@H]1[C@H](O)C[C@@H]1[C@@]3(C)CC[C@H](O[C@@H]4O[C@H](CO)[C@@H](O)[C@H](O)[C@H]4O[C@@H]4O[C@H](CO)[C@@H](O)[C@H](O)[C@H]4O)C(C)(C)[C@@H]3CC[C@]12C [GINSENOSIDE RB1] | > 180 |
| CC[C@@]12CCCN3CC[C@]4(c5cccc(OC)c5N(C(C)=O)[C@@H]4CC1)[C@H]32 [ASPIDOSPERMINE] | > 564 |
| COc1c2ccoc2nc2c(OC(C)=O)cccc12 [ACETYLROBUSRINE] | > 777 |
| O=c1c(O)c(-c2ccc(O)c(O)c2)oc2cc(O)cc(O)c12 [QUERCETIN] | < 662 |

— ChEMBL document CHEMBL1137798, “Evaluation of natural products as inhibitors of human immunodeficiency virus type 1 (HIV-1) reverse transcriptase” (J Nat Prod, 1991)
